Experimental data published in ChEMBL document CHEMBL5614460, “Discovery of novel substituted pyridine carboxamide derivatives as potent allosteric SHP2 inhibitors” (Eur J Med Chem, 2024).
Active and inactive are the calls of the source. No cut-off for these calls is given here.

Legend:
[1] = biological target: T1, Tyrosine-protein phosphatase non-receptor type 11 (Homo sapiens, UniProt Q06124); assay: Inhibition of SHP2 (unknown origin)
T1 sequence (Q06124 whole entry): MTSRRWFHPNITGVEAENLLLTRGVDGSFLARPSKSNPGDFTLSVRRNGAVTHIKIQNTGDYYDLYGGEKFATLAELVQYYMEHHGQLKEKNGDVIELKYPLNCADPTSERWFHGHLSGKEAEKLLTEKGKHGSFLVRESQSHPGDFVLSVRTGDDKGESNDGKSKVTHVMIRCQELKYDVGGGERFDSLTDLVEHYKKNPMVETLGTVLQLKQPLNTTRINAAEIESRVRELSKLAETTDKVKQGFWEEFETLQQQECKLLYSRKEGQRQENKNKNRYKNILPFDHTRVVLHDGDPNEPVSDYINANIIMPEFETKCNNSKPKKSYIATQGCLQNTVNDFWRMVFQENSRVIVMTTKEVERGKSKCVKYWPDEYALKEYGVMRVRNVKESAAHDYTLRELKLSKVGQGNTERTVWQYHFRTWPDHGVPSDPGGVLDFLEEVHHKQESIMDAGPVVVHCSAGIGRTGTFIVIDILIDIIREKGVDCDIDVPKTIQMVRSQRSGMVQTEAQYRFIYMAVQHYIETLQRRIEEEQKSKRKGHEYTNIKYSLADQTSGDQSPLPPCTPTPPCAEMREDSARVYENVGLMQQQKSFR

[2] = tested on: MV4-11; assay: Antiproliferative activity against human MV4-11 cells assessed as inhibition of cell proliferation incubated for 72 hrs by CCK-8 assay; type: functional, cell-based
[3] = tested on: MV4-11; assay: Antitumor activity against human MV4-11 cells xenografted in BALB/C nude mouse model assessed as tumor growth inhibition at 30 mg/kg, IG administered once daily for 18 days relative to control; type: functional; details: MV4-11, po, 432 h, time 18 day, read-out: TGI
[4] = Toxicity in BALB/C nude mouse xenografted with human […] cells assessed as animal death at 30 mg/kg, IG administered once daily for 18 days; type: organism-based; details: in vivo, po, 432 h, time 18 day
[5] = Toxicity in BALB/C nude mouse xenografted with human […] cells assessed as change in body weight at 30 mg/kg, IG administered once daily for 18 days; type: organism-based; details: in vivo, po, 432 h, time 18 day
[6] = tested on: MV4-11; assay: Antitumor activity against human MV4-11 cells xenografted in BALB/C nude mouse model assessed as suppression of tumor growth administered intragastrically as once daily dose for 18 days; type: functional, cell-based; details: dose 10-30 mg/kg, route ig, time 18.0 day
[7] = biological target: T1, Tyrosine-protein phosphatase non-receptor type 11; assay: Allosteric inhibition of N-terminal His-tagged human recombinant SHP2 extracted from Escherichia coli using DiFMUP as substrate preincubated with compound for 60 mins followed by substrate addition and measured after 30 mins by fluorescence based microplate reader analysis
[8] = tested on: MV4-11; assay: Potency index, ratio of TNO155 IC50 to test compound IC50 for antiproliferative activity against human MV4-11 cells assessed as inhibition of cell proliferation incubated for 72 hrs by CCK-8 assay; type: functional
[9] = biological target: T2, Tyrosine-protein phosphatase non-receptor type 11 (Homo sapiens) (UniProt Q06124); assay: Inhibition of SHP2 PTP domain (unknown origin) using DiFMUP as substrate at 10 uM preincubated with compound for 60 mins followed by substrate addition and measured after 30 mins by fluorescence based microplate reader analysis relative to control; details: time 90.0 min
T2 sequence (whole entry): T1 sequence (Q06124 whole entry)

[10] = biological target: Tyrosine-protein phosphatase non-receptor type 6 (Homo sapiens) (UniProt P29350); assay: Inhibition of SHP1 (unknown origin) using DiFMUP as substrate at 10 uM preincubated with compound for 60 mins followed by substrate addition and measured after 30 mins by fluorescence based microplate reader analysis relative to control; details: time 90.0 min
[11] = biological target: T3, Tyrosine-protein phosphatase non-receptor type 1 (Homo sapiens) (UniProt P18031); assay: Inhibition of PTP1B (unknown origin) using DiFMUP as substrate at 10 uM preincubated with compound for 60 mins followed by substrate addition and measured after 30 mins by fluorescence based microplate reader analysis relative to control; details: time 90.0 min
T3 sequence (whole entry): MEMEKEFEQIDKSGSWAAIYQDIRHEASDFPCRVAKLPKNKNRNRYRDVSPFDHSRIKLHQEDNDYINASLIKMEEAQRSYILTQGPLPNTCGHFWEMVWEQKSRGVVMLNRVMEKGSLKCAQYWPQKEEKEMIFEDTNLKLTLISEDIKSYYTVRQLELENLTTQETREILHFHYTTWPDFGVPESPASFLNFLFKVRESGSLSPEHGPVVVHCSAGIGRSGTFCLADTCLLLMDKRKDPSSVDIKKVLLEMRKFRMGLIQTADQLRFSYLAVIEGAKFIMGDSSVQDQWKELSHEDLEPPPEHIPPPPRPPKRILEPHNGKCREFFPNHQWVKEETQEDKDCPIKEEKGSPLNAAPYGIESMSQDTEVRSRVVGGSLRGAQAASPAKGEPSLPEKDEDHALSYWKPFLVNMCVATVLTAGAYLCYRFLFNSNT

[12] = Cmax in male Sprague-Dawley rat at 2 mg/kg, iv measured for 24 hrs by LC/MS analysis; type: ADME, organism-based; details: in vivo
[13] = Cmax in male Sprague-Dawley rat at 10 mg/kg, po measured for 24 hrs by LC/MS analysis; type: ADME, organism-based; details: in vivo
[14] = Tmax in male Sprague-Dawley rat at 2 mg/kg, iv measured for 24 hrs by LC/MS analysis; type: ADME, organism-based; details: in vivo
[15] = Tmax in male Sprague-Dawley rat at 10 mg/kg, po measured for 24 hrs by LC/MS analysis; type: ADME, organism-based; details: in vivo
[16] = Half life in male Sprague-Dawley rat at 2 mg/kg, iv measured for 24 hrs by LC/MS analysis; type: ADME, organism-based; details: in vivo
[17] = Half life in male Sprague-Dawley rat at 10 mg/kg, po measured for 24 hrs by LC/MS analysis; type: ADME, organism-based; details: in vivo
[18] = AUC (0 to infinity) in male Sprague-Dawley rat at 2 mg/kg, iv measured for 24 hrs by LC/MS analysis; type: ADME, organism-based; details: in vivo
[19] = AUC (0 to infinity) in male Sprague-Dawley rat at 10 mg/kg, po measured for 24 hrs by LC/MS analysis; type: ADME, organism-based; details: in vivo
[20] = Apparent volume of distribution during terminal phase in male Sprague-Dawley rat at 2 mg/kg, iv measured for 24 hrs by LC/MS analysis; type: ADME, organism-based; details: in vivo
[21] = Apparent clearance during terminal phase in male Sprague-Dawley rat at 2 mg/kg, iv measured for 24 hrs by LC/MS analysis; type: ADME, organism-based; details: in vivo
[22] = Oral bioavailability in male Sprague-Dawley rat at 10 mg/kg measured for 24 hrs by LC/MS analysis; type: ADME, organism-based; details: in vivo
[23] = tested on: MV4-11; assay: Antitumor activity against human MV4-11 cells xenografted in BALB/C nude mouse model assessed as tumor growth inhibition at 10 mg/kg, IG administered once daily for 18 days relative to control; type: functional; details: MV4-11, po, 432 h, time 18 day, read-out: TGI
[24] = Toxicity in BALB/C nude mouse xenografted with human […] cells assessed as animal death at 10 to 30 mg/kg, IG administered once daily for 18 days; type: organism-based; details: in vivo, po, 432 h, dose 10-30 mg/kg, time 18 day
[25] = Toxicity in BALB/C nude mouse xenografted with human […] cells assessed as change in body weight at 10 to 30 mg/kg, IG administered once daily for 18 days; type: organism-based; details: in vivo, po, 432 h, dose 10-30 mg/kg, time 18 day
[26] = tested on: MV4-11; assay: Antitumor activity against human MV4-11 cells xenografted in BALB/C nude mouse model assessed as appearance of pyknotic nuclei in tumor at 10 to 30 mg/kg, IG administered once a day for 18 days by H and E staining based analysis; type: functional, organism-based; details: dose 10-30 mg/kg, time 18.0 day
[27] = tested on: MV4-11; assay: Antitumor activity against human MV4-11 cells xenografted in BALB/C nude mouse model assessed as appearance of shrunken nuclei in tumor at 10 to 30 mg/kg, IG administered once a day for 18 days by H and E staining based analysis; type: functional, organism-based; details: dose 10-30 mg/kg, time 18.0 day
[28] = biological target: T2, Tyrosine-protein phosphatase non-receptor type 11 (Homo sapiens); assay: Inhibition of SHP2 in human MV4-11 cells assessed as downregulation of phosphorylated Akt level incubated for 12 hrs by Western blot analysis; type: cell-based; details: dose 0-5 µM
[29] = biological target: T2, Tyrosine-protein phosphatase non-receptor type 11 (Homo sapiens); assay: Inhibition of SHP2 in human MV4-11 cells assessed as downregulation of phosphorylated ERK level incubated for 12 hrs by Western blot analysis; type: cell-based; details: dose 0-5 µM
[30] = tested on: MV4-11; assay: Antitumor activity against human MV4-11 cells xenografted in BALB/C nude mouse model assessed as reduction in Ki67 expression administered intragastrically as once daily dose for 18 days by immunohistochemistry staining based analysis; type: functional, cell-based; details: dose 10-30 mg/kg, route ig, time 18.0 day
[31] = tested on: MV4-11; assay: Antitumor immunity against human MV4-11 cells xenografted in BALB/C nude mouse model assessed as suppression of CD206+/Ly6C+ M2-like tumor associated macrophages in lymphocytes at 10 to 30 mg/kg, IG administered once daily for 18 days by flow cytometric analysis; type: functional, organism-based; details: dose 10-30 mg/kg, time 18.0 day
[32] = tested on: MV4-11; assay: Antitumor immunity against human MV4-11 cells xenografted in BALB/C nude mouse model assessed as reduction of IL-10 expression level in tumor at 30 mg/kg, IG administered once daily for 18 days by ELISA; type: functional, organism-based; details: time 18.0 day
[33] = tested on: MV4-11; assay: Antitumor immunity against human MV4-11 cells xenografted in BALB/C nude mouse model assessed as reduction in F4/80+/CD206+ M2-like tumor associated macrophages at 10 to 30 mg/kg, IG administered once daily for 18 days by immunofluorescence staining […]; type: functional, organism-based; details: dose 10-30 mg/kg, time 18.0 day

Sequence of Tyrosine-protein phosphatase non-receptor type 6 (Homo sapiens) (P29350 whole entry): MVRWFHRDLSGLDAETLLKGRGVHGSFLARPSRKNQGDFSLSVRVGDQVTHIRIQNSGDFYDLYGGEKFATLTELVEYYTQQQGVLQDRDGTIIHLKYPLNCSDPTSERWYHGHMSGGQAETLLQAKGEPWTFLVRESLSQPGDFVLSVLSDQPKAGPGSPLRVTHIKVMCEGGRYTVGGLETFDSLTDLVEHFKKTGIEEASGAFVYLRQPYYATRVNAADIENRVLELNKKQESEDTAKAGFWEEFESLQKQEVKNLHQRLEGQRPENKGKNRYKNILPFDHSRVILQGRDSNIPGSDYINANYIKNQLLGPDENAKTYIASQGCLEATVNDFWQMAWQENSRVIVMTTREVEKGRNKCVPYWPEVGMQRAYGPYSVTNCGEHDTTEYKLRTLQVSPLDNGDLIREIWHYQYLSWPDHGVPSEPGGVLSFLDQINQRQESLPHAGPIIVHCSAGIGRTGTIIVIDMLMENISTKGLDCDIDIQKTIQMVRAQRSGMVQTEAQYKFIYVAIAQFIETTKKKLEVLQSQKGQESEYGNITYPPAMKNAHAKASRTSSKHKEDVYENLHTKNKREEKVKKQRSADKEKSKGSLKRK

Cc1nc(N2CCC3(CC2)CO[C@@H](C)[C@H]3N)c(CO)nc1Sc1ccnc(N)c1Cl [VOCIPROTAFIB]
IC50 [1]: 1.5 nM

C[C@@H]1OCC2(CCN(c3cnc(Sc4ccnc(N)c4Cl)c(N)n3)CC2)[C@@H]1N [BATOPROTAFIB]
IC50 ([2]; mv4-11): 39 nM | inhibition in vivo at 30 mg/kg [3]: 70.8% | Activity [4]: Non-Toxic | Activity [5]: Non-Toxic

N[C@@H]1c2ccccc2CC12CCN(c1cnc(Sc3cccc(NC(=O)c4cnccc4O)c3Cl)cn1)CC2
Activity [6]: Dose-Dependent Effect | IC50 [7]: 0.13 nM | IC50 ([2]; Homo sapiens, MV4-11, 72 h): 3.5 nM | Ratio IC50 [8]: ~11 | inhibition [9]: 13.2% | inhibition [10]: 29.3% | inhibition [11]: 8.7% | Cmax [12]: 681 ng/mL | Cmax [13]: 70.1 ng/mL | Tmax [14]: 1.8 min | Tmax [15]: 3.24 h | half-life [16]: 4.26 h | half-life [17]: 4.66 h | AUC(0-inf) [18]: 1260 ng·h/mL | AUC(0-inf) [19]: 762 ng·h/mL | Vz/F [20]: 11.04 L/kg | CLz/F [21]: 29 mL/min/kg | bioavailability [22]: 11.9% | inhibition in vivo at 30 mg/kg [3]: 69.5% | inhibition in vivo at 10 mg/kg [23]: 45.9% | Activity [24]: Non-Toxic | Activity [25]: Non-Toxic | Activity [26]: Active | Activity [27]: Active | inhibition [28]: Dose-Dependent Effect | inhibition [29]: Dose-Dependent Effect | Activity [30]: Dose-Dependent Effect | Activity [31]: Active | Activity [32]: Active | Activity [33]: Active
